According to US20030166004A1, “Endothelial-cell binding peptides for diagnosis and therapy” (priority 2001, published 2003):
Read-outs that look alike come from different tables or passages of the source. Ends that are not written are not given here. * marks the point of attachment. Biotin = O=C1N[C@H]2[C@H](CS[C@H]2CCCCC(=O)*)N1

Columns and labels:
[1] = tested on: aortic smooth muscle cells (AoSMC)
Excerpt: (§1) We developed a cell-based saturation ligand binding assay to measure the specific binding of the isolated EC binding peptides to human microvascular endothelial cells (HMVEC) and aortic smooth muscle cells (AoSMC). This assay allows the determination of the relative binding affinities of the isolated EC binding peptides. The assay is based on the highly sensitive fluorescence enhancement technique DELFIA® and coated microtitration plates. In this assay the synthetic peptides labeled with biotin at their amino terminus are incubated with fixed target cells in microtiter plate format. After incubation, the excess, unbound peptides are removed and europium labeled streptavidin added to the plates. After the removal of excess streptavidin, the europium is released and its fluorescence is measured.
(§2) Saturation ligand binding experiments measure specific ligand binding at equilibrium at various concentrations of the ligand. Binding curves are analyzed to determine binding site or receptor number and affinity. This curve is known as a rectangular hyperbola, binding isotherm, or saturation binding curve. This curve is determined by the following equation: […]
(§3) Y is zero initially, and increases to a maximum plateau value, Bmax. This equation describes the equilibrium binding of a ligand to a receptor as a function of increasing ligand concentration. X is the concentration of the ligand, and Y is the specific binding. Kd is the equilibrium dissociation constant, expressed in the same units as the X-axis (concentration). When the drug concentration equals Kd, half the binding sites are occupied at equilibrium.
(§4) Streptavidin-Eu^3+ reagent (cat # 1244-105), reagent diluent (cat # 1244-111), and Enhancement Solution (cat # 1244-105) were purchased from Perkin Elmer-Wallac (Turku, Finland), and the plates were read on Wallac Victor counter. The binding constants were calculated using the method of nonlinear regression analysis with the Prizm software (GraphPad Software, Inc.).
(§5) The HMVEC (human microvascular endothelial cell) and aortic smooth muscle cells (AoSMC) cells were purchased from Clonetics (San Diego, Calif.) and maintained according to the specifications of the supplier. In these experiments the cultures were used from passages 5 and 6 only.
(§6) The cultured subconfluent cells were trypsinized and resuspended in the culture media according to Clonetics instructions. The diluted suspension was dispensed into a reagent reservoir with magnetic stirring bar. 50 μl of the cell suspension was dispensed into each well of the 96-well plate with the Multidrop while stirring the suspension. The seeding density was 5*10^3 cells/well. The plates are incubated at 37° C. in the atmosphere containing 5% CO2 for 48 hours.
(§7) The cells were then washed three times with TBS with 0.01%Tween20 (wash buffer) and fixed with 2% formalin solution for fifteen minutes at 20° C. The cells were subsequently washed three times with wash buffer. The nonspecific sites on the plates were blocked by 300 μl of Pierce Casein Blocker per well for two hours at 20° C.
(§8) The saturation binding assay was performed by adding 50μl of the biotinylated peptide per well at increasing concentrations. The concentration was ranging from 1 nM to 10 μM. All measurements were performed in triplicates. Peptide dilutions were prepared from 10 mM DMSO stocks in wash buffer. The plates were incubated for one hour at room temperature and subsequently washed five times with wash buffer using Titertek automatic plate washer to remove any unbound peptide. The biotinylated peptide bound to the cells was then allowed to react for thirty minutes with 50 μl of 2000× dilution of the streptavidin-Eu^3+ reagent, diluted in the Wallac reagent diluent. Finally, after washing the unbound streptavidin-Eu^3+ reagent, 50 μl of Wallac Enhancement Solution per well was added to release the free Eu^3+ from its chelate form. Free Eu^3+ rapidly forms a highly fluorescent stable chelate with the components of the Enhancement solution. […]

[2] = tested on: human microvascular endothelial cells (HMVEC); conditions: Cell Type HMVEC; for Binding Affinity: equals Bmax/Kd; for Kd: fixed cells, biotinylated peptide 1 nM to 10 μM
Excerpt: as §1, §2, §3, §4, §5, §6, §7, §8

chicken aortic rings = assay: Aortic ring assay (chicken aortic rings in Matrigel, microvessel formation); assay type: cell-based; conditions: peptide 125 to 1000 μM, 2-3 days
Excerpt: The aortic ring assay is a widely used in vitro assay for angiogenesis. Typically, rat aortas are sliced crosswise and placed in Matrigel. After three to five days, microvessel sprouting can be roughly quantified by manual counting or by using image analysis. The aortic ring assay is low-cost, easy to use, and offers many assays from a single animal. A relatively new variant uses embryonic chick aortic arches (see Muthukkaruppan et al., Proceedings of the American Association for Cancer Research Annual Meeting, 2000).
In this experiment, chicken aortic rings are embedded in Matrigel (BD BioCoat™ Matrigel™ or other equivalent products) in optimized MCDB-131 media (Sigma product number: M8537, or equivalent products from other vendors). From endothelial cells (EC) in the aortic intima, a complex network of branching and anastomosing microvessels develop interspersed with fibroblast as individual cells. In this assay the ability of the identified EC-binding peptides is tested for their abilities to inhibit EC branching and microvessel formation.
Chicken aortic branches were dissected and cleaned from 15 day old chicken embryos, and were then rinsed well in cold PBS+Penicillin/Streptomycin (P/S) buffers. The arteries were then cut into about 1 mm rings using sterile razor blade, and the resulting rings were mounted in 10-20 μl of Matrigel (in a 48-well plate). Subsequently, 300 μl of MCDB-131 basal media+P/S containing the indicated amount of test peptide were added. The cultured rings were incubated at 37° C., with 5% CO2 for 2-3 days, and the extent of microvessel formation were evaluated as the end of the experiment.

[3] = tested on: angiogenesis in Matrigel plug; assay: Mouse Matrigel plug assay (FGF-induced angiogenesis, hemoglobin content); assay type: in vivo; conditions: for inhibition of angiogenesis in the Matrigel plug assay (in words) / inhibition of angiogenesis: mouse Matrigel plug with FGF; for inhibition of angiogenesis: peptide in the plug versus FGF-only control plug, hemoglobin levels
Method: This assay takes advantage of the fact that Matrigel is liquid at 4° C. but becomes gel when warmed to 37° C. Thus when injected subcutaneously into the ventral region of a mouse, Matrigel solidifies and forms a so-called “Matrigel plug”. When angiogenic factors, such as FGF, are mixed with the Matrigel and injected, endothelial cells migrate into the gel plug and form functional vessels. The level of angiogenesis can then be assessed by measuring hemoglobin levels in the plugs, which are directly proportional to the extent of angiogenesis. Typically, two plugs are assayed in each mouse: one plug (control plug) contains FGF only and is used as control for angiogenesis, while the test plug contains FGF and an indicated amount of test peptide(s). In single-point assays, peptide concentration in the plug is 1 mM.
C57BL/6 female mice, 6-8 wks.
Basis FGF (bFGF) stock was prepared at 25 μg/ml in saline buffer +5% mouse serum albumin. The bFGF stock was added to Matrigel at 200 ng/ml. The mixture was left on ice for at least 3 hours before further use. For each mouse, 1 ml of such mixture was prepared, so that 0.5 ml of the mixture can be injected into each mouse to achieve about 100 ng/one side injection. If a test peptide were also to be added, for each mouse, 50 μl of 10 mM peptide (or 5 mM cRGD, positive control) was slowly added to Matrigel, swirling while adding. Per 5 mice, add 300 μl of peptide per 3 mls of Matrigel.
Syringes for injection were left on ice before injection. One syringe is used for each side of the group of 5 mice. About 1 ml of the mixture can be loaded at a time and injected into 2 mice using the Becton Dickinson 1 ml syringe for subcutaneous injection (26 gauge, ⅝ths, cat# 309597). Mice were anesthetized with isofluorane in a chamber, and were pulled out just as their breathing became slow. Injection were performed subcutaneously at inner thighs of the mice.
To determined the degree of angiogenesis, Matrigel plugs were dissected out, and placed in pre-weighed Falcon 5 ml snap-cap round bottomed tubes (polypropylene, Falcon cat# 352063). One ml of PBS was then added. The tubes were weighed with Matrigel plugs inside. The samples were kept at 4° C. until ready for hemoglobin assay.
Sonicate samples before measuring the hemoglobin content using the Plasma hemoglobin kit from Sigma.

| Substance | Bmax (counts/cell) ([1]; Cell Type AoSMC) | Binding Affinity ([1]; Cell Type AoSMC, equals Bmax/Kd) | Kd ([1]; Cell Type AoSMC, fixed cells, biotinylated peptide 1 nM to 10 μM) [nM] | Binding Affinity [1] | Bmax (counts/cell) [1] [counts/cell] | binding to AoSMC (in words) [1] | Bmax (counts/cell) [2] [counts/cell] | Binding Affinity [2] | Kd [2] [nM] | inhibition of angiogenesis (microvessel formation) in the aortic ring assay (in words) (chicken aortic rings) | inhibition of angiogenesis in the Matrigel plug assay (in words) [3] | Kd [1] [nM] | inhibition of angiogenesis [3] [%] | binding to smooth muscle cells compared with endothelial cells [1] | dose dependence of inhibition of angiogenesis ([3]; mouse Matrigel plug, three concentrations, n no less than 9) |
| --- | --- | --- | --- | --- | --- | --- | --- | --- | --- | --- | --- | --- | --- | --- | --- |
| Biotin-CDCRGDCFC-OH (cysteine pairing not given here) [reference compound] | 7.18 | 28.725 | 250 | – | – | – | – | – | – | – | – | – | – | – | – |
| Biotin-GCDSHKRLKCG (cysteine pairing not given here) [9-G5] | – | – | – | −2.127 | 2.937 | do not bind | 10.1138 | 19.195 | 527 | tested positive | tested positive | – | – | – | – |
| Biotin-GCHSSTWRACG (cysteine pairing not given here) [2-C10] | – | – | – | −5.709 | 0.9694 | do not bind | 8.79 | 3.83 | 2290 | tested positive | tested positive | – | – | – | – |
| Biotin-GCMNQHSSACG (cysteine pairing not given here) [3-B5] | – | – | – | 85.24 | 8.354 | – | 3.817 | 394.75 | 9.7 | – | – | 98 | – | – | – |
| Biotin-GCPTPHSGTCG (cysteine pairing not given here) [2-G9] | – | – | – | 57.639 | 8.519 | – | 5.15 | 166.12 | 31 | tested positive | tested positive | 148 | 57 | – | – |
| Biotin-GCTQMRTAYCG (cysteine pairing not given here) [7-D5] | – | – | – | 28.211 | 10.8332 | – | 11.0211 | 2.3116 | 4770 | – | – | 384 | – | binds better to smooth muscle cells than to endothelial cells | – |
| HTKQIPRHIYSA [1-H5] | – | – | – | – | – | – | – | – | – | tested positive | tested positive | – | 44 | – | linearly proportional to the concentration |
| cRGD [reference compound] | – | – | – | – | – | – | – | – | – | – | – | – | 36 | – | – |
